{"source": "patent US9096544B2", "about": "“Therapeutic compounds” (Wayne State University, priority 2009, dated 2015)", "key": {"TF(v-SRC) cells": {"test_system": "TF(v-SRC) cells", "test": "Annexin V-FITC binding by flow cytometry, TF(v-SRC) cells", "assay_type": "cell-based", "conditions": "1 μM, varying times", "procedure": "FIG. 3 illustrates the induction of apoptosis and cell death as assessed using Annexin V-FITC binding together with propidium iodide (PI) staining. FFMA-AML and TF(vSRC) cells were exposed to 1 μM 3-Cl-AHPC or compound 16. A) Apoptosis in FFMA-AML and TF(vSRC) cells following 24 and 48 h ARR exposure, respectively. The plots show the distribution of classes of fluorescence intensity versus cell number. The bottom left quadrant represents live cells (both annexin V-FITC and PI negative); the bottom right quadrant represents early apoptotic cells (annexin V-FITC positive but PI negative); and the top right quadrant represents late apoptotic cells (both annexin V-FITC and PI positive). B) Percentage of early apopotic Annexin V-positive cells at the indicated times. […] (p values of <0.05, <0.01 and <0.001 respectively, as determined by the t test).\n(§1) Apoptosis of cells was determined by (1) acridine orange and ethidium bromide-staining to assess cells with nuclear fragmentation and chromatin condensation as previously described (Farhana L. et al., Cancer Res. 2006; 65:4909-4917) and (2) flow cytometry assessing Annexin V-FITC binding together with propidium iodide staining (Annexin V-FITC apoptosis Detection kit 1, BD Biosciences, San Diego, Calif.). Data acquisition was done on a FACS Calibur flow cytometer (BD) and analyzed with CellQuest software. […]"}, "caspase-3": {"test_system": "caspase-3", "test": "Caspase-3 activation and cleavage in AML cells", "assay_type": "cell-based", "conditions": "FFMA-AML and TF(vSRC) cells; 1 μM; lysates", "procedure": "FIG. 4 illustrates 3-Cl-AHPC and compound 16-mediated caspase-3 activation and cleavage of caspase-3. A) Activation of caspase-3 in FFMA-AML and TF(vSRC) cells following exposure to 1 μM 3-Cl-AHPC and compound 16 for varying times. B) Generation of the caspase-3 (17 kDa) fragment and caspase-3 protein levels (α-tubulin used as loading control). Columns represent mean of three independent experiments. […] (p value is <0.01 as determined by t test).\nTo further document 3-Cl-AHPC and compound 16-mediated apoptosis in the FFMA-AML and TF(v-SRC) cells, cells were exposed to 1 μM 3-Cl-AHPC or compound 16 for varying times, and then annexin V-FITC binding assessed using flow cytometry."}, "PANC-1 cells [1]": {"test_system": "PANC-1 cells", "test": "Test I: apoptosis of PANC-1 pancreatic cancer cells (Annexin V-FITC/PI)", "assay_type": "cell-based", "conditions": "1 μM, 48 h", "procedure": "(§2) Pancreatic cancer cell lines (COLO357, PANC-1, Capan-2, AsPc-1 cells and MiaPaCa-2 cells obtained from American Type Culture Collection; ATCC, Rockville, Md.) were treated with 1 μM 3-Cl-AHPC and compound 16 for various times. Apoptosis in cells were analyzed by flow cytometry using Annexin V-FITC binding together with propidium iodide (PI) staining (Annexin V-FITC apoptosis Detection Kit 1, BD Biosciences, San Diego, Calif.). Data acquisition was done on a FACS Calibur flow cytometer (BD) and analyzed with CellQuest software (BD Biosciences). 3-Cl-AHPC and compound 16 mediated inhibition of cell growth were determined by 3-(4,5-dimethylthiazol-2-yl)-2,5-diphenyltetrazolium bromide (MTT) assay. The cells were seeded on 96-well plates at a density of 4×10^4 cells/well in a volume of 200 μl culture medium. 1 μM AHP3 and 3-Cl-AHPC in DMSO (final concentration 0.1%) were added to the cells for various times. […] After discarding the medium, MTT precipitates were solubilized with 200 μl DMSO and the plates read on a BioTeK Synergy HT (BioTeK Instrument Inc., Vermont) at an absorbance 570 nm. […] The spheroids were stained with acridine orange/ethidium bromide staining and immediately visualized and photographed with fluorescence microscope (OLYMPUS CKX41). […] Then spheroids were visualized and photographed with a fluorescence microscope."}, "PANC-1 cells [2]": {"test_system": "PANC-1 cells", "test": "Test I: growth inhibition of PANC-1 cells (MTT)", "assay_type": "cell-based", "conditions": "1 μM", "procedure": "as §2"}, "FFMA-AML cells": {"test_system": "FFMA-AML cells", "test": "Test B: apoptosis of FFMA-AML cells (acridine orange/ethidium bromide, nuclear fragmentation)", "assay_type": "cell-based, human", "conditions": "for EC50: Homo sapiens, nuclear fragmentation, FIG. 2A/B (96 h), read-out: ED50 of apoptosis induction", "procedure": "FIG. 2 illustrates apoptosis induction in FFMA-AML and TF(v-SRC) cells by 3-Cl-AHPC and compound 16. Cells were seeded at 1×10^4 cells/ml, grown for 24 h and then exposed to 1 μM compound 16 or 3-Cl-AHPC A) at various concentrations of the compound for 96 h and B) for increasing times of exposure. C) Induction of apoptosis by 3-Cl-AHPC, all-trans-retinoic acid, 9-cis-retinoic acid and TTNPB in FFMA-AML and TF(v-SRC) cells. The percentage of apoptotic cells was determined using acridine orange and ethidium bromide staining to determine nuclear fragmentation as described in the general biochemical and pharmacological materials and methods. The error bars represent the mean of three separate determinations +/− the standard deviation (SD).\nFFMA-AML cells were obtained from a patient with a diagnosis of AML as indicated by the immunophenotyping described in Table 1. This patient was refractory to the chemotherapy regimens consisting of cytosine arabinoside given with daunomycin as well as high-dose cytosine arabinoside. Peripheral blood samples were obtained from the patient utilizing a Wayne State University Institutional Review Board approved protocol and the leukemic blasts were isolated utilizing Ficoll hypaque. […]\nas §1"}, "MiaPaCa-2 cells": {"test_system": "MiaPaCa-2 cells", "test": "Test I: apoptosis of MiaPaCa-2 pancreatic cancer cells (Annexin V-FITC/PI)", "assay_type": "cell-based", "conditions": "1 μM, 72 h", "procedure": "as §2"}}}
{"smiles": "O=C(O)C=Cc1ccc(-c2ccc(O)c(C34CC5CC(CC(C5)C3)C4)c2)c(Cl)c1", "note": "[Compound 3-Cl-AHPC, 4-[3-(1-adamantyl)-4-hydroxyphenyl]-3-chlorocinnamic acid, reference compound]", "values": [{"measurement": "annexin V-FITC-positive cells", "setting": "TF(v-SRC) cells", "result": "progressive increase in annexin V-FITC-positive cells with time"}, {"measurement": "caspase-3 activation (17-kDa cleaved caspase-3, caspase-3 activity)", "setting": "caspase-3", "result": "induced caspase-3 activation"}, {"measurement": "cells in which induction of apoptosis was noted", "setting": "PANC-1 cells [1]", "result": 50, "unit": "%"}, {"measurement": "inhibition of growth", "setting": "PANC-1 cells [2]", "result": "significant inhibition of growth"}, {"measurement": "cells displaying apoptosis", "setting": "FFMA-AML cells; FIG. 2C, retinoid values over that noted with the vehicle", "result": 80, "unit": "%"}, {"measurement": "EC50", "setting": "FFMA-AML cells", "result": 370, "unit": "nM"}, {"measurement": "induction of apoptosis", "setting": "MiaPaCa-2 cells", "result": "Apoptosis was also noted"}]}
{"smiles": "O=C(O)/C=C/c1cnc(-c2ccc(O)c(C34CC5CC(CC(C5)C3)C4)c2)nc1", "note": "[Compound 16, (E)-3-[2-(3-(1-Adamantyl)-4-hydroxyphenyl)-5-pyrimidinyl]-2-propenoic acid]", "values": [{"measurement": "annexin V-FITC-positive cells", "setting": "TF(v-SRC) cells", "result": "progressive increase in annexin V-FITC-positive cells with time"}, {"measurement": "caspase-3 activation (17-kDa cleaved caspase-3, caspase-3 activity)", "setting": "caspase-3", "result": "induced caspase-3 activation"}, {"measurement": "cells in which induction of apoptosis was noted", "setting": "PANC-1 cells [1]", "result": 50, "unit": "%"}, {"measurement": "inhibition of growth", "setting": "PANC-1 cells [2]", "result": "significant inhibition of growth"}, {"measurement": "EC50", "setting": "FFMA-AML cells", "result": 320, "unit": "nM"}, {"measurement": "induction of apoptosis", "setting": "MiaPaCa-2 cells", "result": "Apoptosis was also noted"}]}
